The NIST ThermoML archive (doi:10.1021/je301371p)

Test: xn = mol fraction of the nth substance listed
Details: 101 kPa, Liquid; for mass density: Vibrating tube method; for viscosity: Oscillating disk viscometry

NCCCCN [1,4-butanediamine] + O
Details	mass density, 298.15 K [kg/m3]	mass density, 313.15 K [kg/m3]	mass density, 333.15 K [kg/m3]	viscosity, 303.15 K [mPa·s]	viscosity, 313.15 K [mPa·s]	viscosity, 323.15 K [mPa·s]	viscosity, 333.15 K [mPa·s]
x1 = 0.01952	992.346	986.497	976.433	1.23	0.98	0.8	0.63
x1 = 0.04244	988.532	981.237	969.713	1.83	1.39	1.1	0.9
x1 = 0.06965	985.772	976.817	963.518	2.51	1.85	1.4	1.06
x1 = 0.1025	982.813	972.197	957.323	3.65	2.57	1.86	1.37
x1 = 0.1434	978.544	966.791	950.667	4.87	3.29	2.29	1.62

O [water] + CCN(CC)CCO
x2 = 0
Details	mass density [kg/m3]	viscosity [mPa·s]
298.15 K	–	0.89
303.15 K	–	0.8
313.15 K	–	0.65
323.15 K	–	0.55
333.15 K	983.2	0.48

CCN(CC)CCO [(diethylamino)ethanol] + O
Details	mass density, 298.15 K [kg/m3]	mass density, 313.15 K [kg/m3]	mass density, 333.15 K [kg/m3]	viscosity, 298.15 K [mPa·s]	viscosity, 303.15 K [mPa·s]	viscosity, 313.15 K [mPa·s]	viscosity, 323.15 K [mPa·s]	viscosity, 333.15 K [mPa·s]
x1 = 0.02012	993.744	987.552	976.86	2.16	1.4	1.12	0.94	0.75
x1 = 0.04547	990.151	981.577	968.366	3.62	2.34	1.66	1.32	1.03
x1 = 0.07875	983.322	972.648	957.191	–	3.61	2.42	1.72	1.24
x1 = 0.1252	971.858	959.656	942.334	8	5.75	3.76	2.6	1.87
x1 = 0.1933	961.569	948.632	930.379	11.61	8.05	5.27	3.69	2.53

O [water] + NCCCCN
x2 = 0
Details	mass density [kg/m3]	viscosity [mPa·s]
298.15 K	–	0.89
303.15 K	–	0.8
313.15 K	–	0.65
323.15 K	–	0.55
333.15 K	983.2	0.48
